Results taken from patent US9657307B2, “Herbicide resistance gene and use thereof” (HANGZHOU RUIFENG BIOTECHNOLOGY LIMITED INC., priority 2010, dated 2017).

Legend:
[1] = test system: transformation line N-Z1-At6; test: Herbicide and herbicide mixture resistance of transformation line N-Z1-At6; type: in vivo, Arabidopsis thaliana; details: sprayed during the 4th-6th leaf stage
Description: The resistance capability of N-Z1-At6 to other herbicides was further tested. Atrazine (90% water dispersible granule, Syngenta), Dicamba (48% aqueous formulation, Syngenta), flumiclorac-pentyl (10% emulsifiable concentrate, Sumitomo Chemical Corporation), bentazon, penoxsulam, bensulfuron and tribenuron are respectively sprayed during the 4th-6th leaf stage.
The transformation line N-Z1-At6 was further tested for the resistance to herbicide mixture.

[2] = test system: untransformed Arabidopsis thaliana seeds; test: Germination and growth on glyphosate medium; type: in vivo; details: growth medium containing 0.5 mM glyphosate
Experimental: The seeds obtained from Arabidopsis thaliana infected by Agrobacterium were allowed to germinate and grow in Arabidopsis thaliana growth medium containing 0.5 mM glyphosate. […] However, the seeds that introduced with T-DNA can grow and develop, followed by flowering and harvesting seeds. A total of 35 individual glyphosate-resistant seedlings (T0 generation) were obtained, and the seeds thereof were harvested.

[3] = test system: transgenic rice strains obtained by pCam1300-N-Z1 vector transformation; test: Herbicide resistance of transgenic rice, pCam1300-N-Z1 vector; type: in vivo; details: after 10 days; for transgenic strains with slow growth / transgenic strains without any observable growth inhibition: of 10 strains; for death rate of transgenic strains: seedlings about 10 cm, 10 strains
Description: The method for obtaining transgenic rice was implemented using existing technology (Lu Xiongbin, Gong zuxun, 1998, Life Science, 10: 125-131; Liu fan et al., 2003, Molecular Plant Breeding, 1:108-115). Ripe and plump “Xiushui 134” seeds were selected and deshelled, and the calli were induced and produced which would be used as transformation material. Agrobacterium containing target gene vectors pCam1300-N-Z1 and pCam1300-N-Z2 was taken and streaked onto a plate, and single colony was selected and inoculated to prepare Agrobacterium for transformation. The calli to be transformed were placed into Agrobacterium liquid (containing acetosyringone) with proper concentration, allowing the Agrobacterium to be conjugated to the surface of the calli, and then the calli were transferred to a coculture medium and cocultured for 2-3 days. The transformed calli were rinsed with aseptic water and transferred to a selective medium containing appropriate hygromycin, and cultured for screening for two months (subcultured one time during the period). The calli after being screened with good viability were transferred to a pre-differentiation medium and cultured for about 20 days, and then the pre-differentiated calli were transferred to a differential medium and irradiated with light for 14 hours for differentiation and sprouting. After 2-3 weeks, the regenerated plants having resistance were transferred to a rooting medium containing nicosulfuron (0.1 mg/L) for strengthening the seedling and growing roots, and then the regenerated plants were rinsed to remove agar and transferred into a greenhouse to be used as identification materials.
(§1) 10 different transgenic rice strains obtained by pCam1300-N-Z1 vector transformation and non-transgenic strains of the same variety “XiuShui 134” were selected and planted in a greenhouse (at a temperature of 15° C.-25° C.), and nicosulfuron (Yu Nongle, zhejiang Gold-Ox pesticides LTD) was sprayed at 6 mg/square meter when the seedlings have a height of about 10 cm.
(§2) 10 different transgenic rice strains obtained by pCam1300-N-Z1 vector transformation and non-transgenic strains of the same variety “XiuShui 134” were selected and planted in a greenhouse (at a temperature of 15° C.-25° C.), and mesotrione (10% mesotrione suspension, Syngenta) was sprayed at 15 mg/square meter when the seedlings have a height of about 10 cm.

[4] = test system: transgenic Arabidopsis thaliana transformation lines (vector pCambia1300-35S/G10-35S/N-Z1); test: Herbicide resistance of transgenic Arabidopsis thaliana, pCambia1300-35S/G10-35S/N-Z1; type: in vivo; details: 10 days after spraying
Description: A total of 35 individual transformation lines were obtained using vector pCambia1300-35S/G10-35S/N-Z1. The T1 generation seedlings (obtained after the germination of T0 generation seeds) were sprayed with glyphosate diluted at 1:200 (41% aqueous solution of glyphosate isopropylamine salt, Xin'an chemical company) to remove the isolated plants without introduction of glyphosate-resistant gene. The survived plants were subjected to herbicide resistance test after growing to 4th-6th leaf stages.
(§3) Nicosulfuron resistance test: 10 plants for each line were sprayed with nicosulfuron (the dose is equal to 6 mg/square meter, the effective spraying concentration was 80 mg/L, and the product was Yu Nongle, Zhejiang Gold-Ox pesticides LTD). Non-transgenic recipient parent Arabidopsis thaliana was used as negative control. Their nicosulfuron resistance levels were evaluated 10 days after spraying nicosulfuron. […] All of the non-transgenic recipient parent Arabidopsis thaliana died.
(§4) Mesotrione resistance test: 10 plants for each line were sprayed with mesotrione (the dose is equal to 15 mg/square meter, the effective spraying concentration was 200 mg/L, and the product was 10% mesotrione suspension, Syngenta). Non-transgenic recipient parent Arabidopsis thaliana was used as negative control. Their mesotrione resistant levels were evaluated 10 days after spraying mesotrione. […] All of the non-transgenic recipient parent Arabidopsis thaliana died.
(§5) 2,4-D resistance test: 10 plants for each line were sprayed with 2,4-D (the dose was equal to 150 mg/square meter, the spraying concentration was 1.4 g/L, and the product was soluble powder of […], Haiyan boda fine chemical Co., Ltd). Non-transgenic recipient parent Arabidopsis thaliana was used as negative control. […] All of the non-transgenic recipient parent Arabidopsis thaliana died.

[5] = test system: Non-transgenic recipient parent Arabidopsis thaliana; test: Herbicide spray on non-transgenic Arabidopsis thaliana; type: in vivo; details: 10 days after spraying
Experimental: as §3, §4, §5

Cynodon dactylon = test: Herbicide spray resistance determination of Cynodon dactylon; type: in vivo; details: observed after 10 days
Description: (§6) Cynodon dactylon is a common weed as well as a turfgrass.

[6] = test system: transgenic rice strains obtained by pCam1300-N-Z2 vector transformation; test: Herbicide resistance of transgenic rice, pCam1300-N-Z2 vector; type: in vivo; details: after 10 days, 10 strains
Description: The method for obtaining transgenic rice was implemented using existing technology (Lu Xiongbin, Gong zuxun, 1998, Life Science, 10: 125-131; Liu fan et al., 2003, Molecular Plant Breeding, 1:108-115). Ripe and plump “Xiushui 134” seeds were selected and deshelled, and the calli were induced and produced which would be used as transformation material. Agrobacterium containing target gene vectors pCam1300-N-Z1 and pCam1300-N-Z2 was taken and streaked onto a plate, and single colony was selected and inoculated to prepare Agrobacterium for transformation. The calli to be transformed were placed into Agrobacterium liquid (containing acetosyringone) with proper concentration, allowing the Agrobacterium to be conjugated to the surface of the calli, and then the calli were transferred to a coculture medium and cocultured for 2-3 days. The transformed calli were rinsed with aseptic water and transferred to a selective medium containing appropriate hygromycin, and cultured for screening for two months (subcultured one time during the period). The calli after being screened with good viability were transferred to a pre-differentiation medium and cultured for about 20 days, and then the pre-differentiated calli were transferred to a differential medium and irradiated with light for 14 hours for differentiation and sprouting. […]

[7] = test system: control weeds including green bristlegrass, wild oats, Amaranthus retroflexus, humulus, purslane, Monochoria vaginalis, piemarker and nutgrass galingale herb; test: Herbicide spray on control weeds; type: in vivo; details: observed after 10 days
Description: as §6

[8] = test system: non-transgenic strains of the same variety "XiuShui 134"; test: Herbicide spray on non-transgenic rice; type: in vivo; details: after 10 days
Experimental: as §1, §2
10 different transgenic rice strains obtained by pCam1300-N-Z2 vector transformation and non-transgenic strains of the same variety “XiuShui 134” were selected and planted in the greenhouse (at a temperature of 15° C.-25° C.), and nicosulfuron was sprayed at 6 mg/square meter when the seedlings have a height of about 10 cm.
10 different transgenic rice strains obtained by pCam1300-N-Z2 vector transformation and non-transgenic strains of the same variety “XiuShui 134” were selected and planted in the greenhouse (at a temperature of 15° C.-25° C.), and mesotrione was sprayed at 15 mg/square meter when the seedlings have a height of about 10 cm.

[9] = nicosulfuron 6 mg/square meter (80 mg/L), of 35 lines
[10] = mesotrione 15 mg/square meter (200 mg/L)

## CCCCCOC(=O)COc1cc(N2C(=O)C3=C(CCCC3)C2=O)c(F)cc1Cl [flumiclorac-pentyl]
[1]
  resistance level of N-Z1-At6 compared with non-transgenic parental plants: obviously improved

## O=C(O)CNCP(=O)(O)O [glyphosate]
[2]
  growth of untransformed seeds after germination: yellowed and died

## COc1cc(OC)nc(NC(=O)NS(=O)(=O)c2ncccc2C(=O)N(C)C)n1 [nicosulfuron]
[3]; nicosulfuron 6 mg/square meter
  transgenic strains with slow growth: 2 strains
  transgenic strains without any observable growth inhibition: 8 strains
  death rate of transgenic strains: 0%
[4]; [9]
  lines killed: 6 lines
  lines with different degrees of growth inhibition: 8 lines
  transformation lines with no obvious herbicide damage: 21 lines
[5]; nicosulfuron 6 mg/square meter (80 mg/L)
  death of non-transgenic recipient parent: died
Cynodon dactylon; nicosulfuron 400 mg/L sprayed
  death of Cynodon dactylon: no death
[6]; nicosulfuron 6 mg/square meter
  death of transgenic strains (N-Z2): died
[7]; nicosulfuron 400 mg/L sprayed
  death of control weeds: killed
[8]; nicosulfuron 6 mg/square meter
  death of non-transgenic strains: died

## COc1cc(OC)nc(NC(=O)NS(=O)(=O)Cc2ccccc2C(=O)O)n1 [bensulfuron]
[1]
  resistance level of N-Z1-At6 compared with non-transgenic parental plants: obviously improved

## CS(=O)(=O)c1ccc(C(=O)C2C(=O)CCCC2=O)c([N+](=O)[O-])c1 [mesotrione]
[3]; mesotrione 15 mg/square meter
  transgenic strains with slow growth: 7 strains
  transgenic strains without any observable growth inhibition: 3 strains
  death rate of transgenic strains: 0%
[4]; [10]
  killed: 11 plants
  whitening at the early stage, most recovered later: 18 plants
[4]; mesotrione 15 mg/square meter (200 mg/L), of 35 lines
  transformation lines with no obvious herbicide damage: 6 lines
[5]; [10]
  death of non-transgenic recipient parent: died
Cynodon dactylon; mesotrione 1000 mg/L sprayed
  death of Cynodon dactylon: no death
[6]; mesotrione 15 mg/square meter
  death of transgenic strains (N-Z2): died
[7]; mesotrione 1000 mg/L sprayed
  death of control weeds: died due to the occurrence of whitening
[8]; mesotrione 15 mg/square meter
  death of non-transgenic strains: died

## CCNc1nc(Cl)nc(NC(C)C)n1 [Atrazine]
[1]
  resistance level of N-Z1-At6 compared with non-transgenic parental plants: obviously improved

## COc1cnc(OC)n2nc(NS(=O)(=O)c3c(OCC(F)F)cccc3C(F)(F)F)nc12 [penoxsulam]
[1]
  resistance level of N-Z1-At6 compared with non-transgenic parental plants: obviously improved

## COc1nc(C)nc(N(C)C(=O)NS(=O)(=O)c2ccccc2C(=O)O)n1 [tribenuron]
[1]
  resistance level of N-Z1-At6 compared with non-transgenic parental plants: obviously improved

## COc1c(Cl)ccc(Cl)c1C(=O)O [Dicamba]
[1]
  resistance level of N-Z1-At6 compared with non-transgenic parental plants: obviously improved

## CC(C)N1C(=O)c2ccccc2NS1(=O)=O [bentazon]
[1]
  resistance level of N-Z1-At6 compared with non-transgenic parental plants: obviously improved
